In ChEMBL document CHEMBL4130605, “7α,20-Epoxy-ent-kaurane Diterpenoids from the Aerial Parts of Isodon pharicus” (J Nat Prod, 2018) one finds IC50 data, which are given here for 26 compounds.

Holding throughout (assay type): functional, cell-based
The subject of test [1] is HL-60. Put plainly: Cytotoxicity against human HL60 cells after 48 hrs by MTS assay. Particulars: HL-60, 48 h.
The test system of test [2] is SMMC-7721. Put plainly: Cytotoxicity against human SMMC7721 cells after 48 hrs by MTS assay. The settings on record: SMMC-7721, 48 h.
Test [3] has as its system A549. Kind of test: Cytotoxicity against human A549 cells after 48 hrs by MTS assay. The settings on record: A549, 48 h.
For test [4], the system named is MCF7. Kind of test: Cytotoxicity against human MCF7 cells after 48 hrs by MTS assay. Particulars: MCF7, 48 h.
The subject of test [5] is SW480. Put plainly: Cytotoxicity against human SW480 cells after 48 hrs by MTS assay. The settings on record: SW480, 48 h.

Bounds are passed on as bounds.

Turning to `COC[C@H]1C(=O)[C@]23C[C@H]1CC[C@H]2[C@@]12CO[C@@]3(O)[C@@H](O)[C@@H]1C(C)(C)CC[C@@H]2OC(C)=O` (relative stereo), the IC50 was found to be 3.77 µM in test [1]; 3.99 µM in test [2]; 6.8 µM in test [3]; 3.2 µM in test [4]; 1.23 µM in test [5].
Turning to `COC[C@@H]1C(=O)[C@]23[C@H](O)[C@H]1[C@@H](O)C[C@H]2[C@]12CCC[C@@](C)(CO)[C@H]1[C@H](O)[C@]3(O)OC2`, the IC50 in test [1], in test [2], in test [3], in test [4] and in test [5] was above 10 µM in each case.
Take `C=C1[C@@H](O)[C@]23[C@H](O)[C@H]1C[C@H](OC(C)=O)[C@H]2[C@]12CCCC(C)(C)[C@H]1[C@H](O)[C@]3(O)O[C@@H]2OCC` (relative stereo): the IC50 in test [1], in test [2], in test [3], in test [4] and in test [5] was above 10 µM in each case.
For `COC[C@H]1C(=O)[C@]23[C@H](O)[C@H]1[C@@H](O)C[C@H]2[C@]12CCC[C@@](C)(COC(C)=O)[C@H]1[C@H](O)[C@]3(O)OC2` (relative stereo), the IC50 in test [1], in test [2], in test [3], in test [4] and in test [5] was above 10 µM throughout.
Regarding `C=C1[C@H]2C[C@@]3([C@@H]1O)[C@@H](C[C@@H]2O)[C@]12CCC[C@@](C)(COC(C)=O)[C@H]1[C@H](O)[C@]3(O)OC2`, the IC50 in test [1], in test [2], in test [3], in test [4] and in test [5] was above 10 µM in each case.
As for `C=C1[C@@H]2C[C@H](O)[C@H]3[C@@]45CO[C@@](O)([C@@H](O)[C@@H]4C(C)(C)CC[C@@H]5OC(C)=O)[C@]3(C2)[C@@H]1O`, the IC50 in test [1], in test [2], in test [3], in test [4] and in test [5] was above 10 µM in each case.
As to `COC[C@H]1C(=O)[C@]23[C@H](O)[C@H]1CC[C@H]2[C@@]12CO[C@@]3(O)[C@@H](O)[C@@H]1[C@](C)(CO)CC[C@@H]2O` (relative stereo), the IC50 in test [1], in test [2], in test [3], in test [4] and in test [5] was above 10 µM in each case.
`C=C1C(=O)[C@]23C[C@H]1CC[C@H]2[C@@]12CO[C@@]3(O)[C@@H](O)[C@@H]1[C@](C)(COC(C)=O)CC[C@@H]2OC(C)=O`: the IC50 in test [1] is 2.43 µM; in test [2] it was 2.03 µM; in test [3], 3.61 µM; in test [4], 2.96 µM; in test [5], 1.01 µM.
As to `COC[C@@H]1C(=O)[C@]23[C@H](O)[C@H]1CC[C@H]2[C@@]12CO[C@@]3(O)[C@@H](O)[C@@H]1[C@](C)(CO)CC[C@@H]2O` (relative stereo), the IC50 in test [1], in test [2], in test [3], in test [4] and in test [5] was above 10 µM each time.
Take `C=C1[C@@H](O)[C@]23[C@H](O)[C@H]1CC[C@H]2[C@@]12CO[C@@]3(O)[C@@H](O)[C@@H]1[C@](C)(COC(C)=O)CC[C@@H]2O`: the IC50 in test [1], in test [2], in test [3], in test [4] and in test [5] was above 10 µM throughout.
For `C=C1C(=O)[C@]23[C@H](O)[C@H]1[C@@H](O)C[C@H]2[C@]12CCC[C@@](C)(CO)[C@H]1[C@H](O)[C@]3(O)OC2`, the IC50 in test [1], in test [2], in test [3], in test [4] and in test [5] was above 10 µM in each case.
`C=C1C(=O)[C@]23[C@H](O)[C@H]1CC[C@H]2[C@@]12CO[C@@]3(O)[C@@H](O)[C@@H]1[C@](C)(CO)CC[C@@H]2O`: the IC50 in test [1], in test [2], in test [3], in test [4] and in test [5] was above 10 µM in each case.
For the compound `C=C1[C@@H](O)[C@]23[C@H](O)[C@H]1C[C@H](OC(C)=O)[C@H]2[C@]12CCCC(C)(C)[C@H]1[C@H](O)[C@]3(O)O[C@@H]2O` (relative stereo), the half-inhibitory concentration (IC50) in test [1], in test [2], in test [3], in test [4] and in test [5] was above 10 µM throughout.
For `C=C1C(=O)[C@]23[C@H](O)[C@H]1CC[C@H]2[C@@]12CO[C@@]3(O)[C@@H](O)[C@@H]1[C@](C)(COC(C)=O)CC[C@@H]2O`, the IC50 in test [1], in test [2], in test [3], in test [4] and in test [5] was above 10 µM throughout.
On to `C=C1[C@@H](O)[C@]23[C@H](O)[C@H]1C[C@H](OC(C)=O)[C@H]2[C@]12CCC[C@@](C)(COC(C)=O)[C@H]1[C@H](O)[C@]3(O)O[C@@H]2O` (relative stereo), for which the concentration for half-maximal inhibition (IC50) in test [1], in test [2], in test [3], in test [4] and in test [5] was above 10 µM in each case.
In the case of `C=C1C(=O)[C@]23[C@H](O)[C@H]1CC[C@H]2[C@]12CC[C@@H](OC(C)=O)[C@@](C)(CO)[C@H]1[C@H](O)[C@]3(O)OC2`, the IC50 in test [1], in test [2], in test [3], in test [4] and in test [5] was above 10 µM each time.
Turning to `C=C1[C@@H](O)[C@]23[C@H](O)[C@H]1C[C@H](OC(C)=O)[C@H]2[C@]12CCC[C@@](C)(COC(C)=O)[C@H]1[C@H](OC(C)=O)[C@]3(O)O[C@@H]2O` (relative stereo), the concentration for half-maximal inhibition (IC50) in test [1] stood at 5.53 µM; in test [2] it was 2.69 µM; in test [3] it was 6.23 µM; in test [4], 3.86 µM; in test [5], 3.17 µM.
For `COC[C@H]1C(=O)[C@]23C[C@H]1CC[C@H]2[C@@]12CO[C@@]3(O)[C@@H](O)[C@@H]1[C@](C)(COC(C)=O)CC[C@@H]2O` (mixture of isomers), the half-inhibitory concentration (IC50) is 18 µM in test [1]; 12.3 µM in test [2]; 14.5 µM in test [3]; 16 µM in test [4]; 9.68 µM in test [5].
Turning to `C=C1C(=O)[C@]23[C@H](O)[C@H]1CC[C@H]2[C@]12CC[C@@H](O)[C@@](C)(CO)[C@H]1[C@H](O)[C@]3(O)OC2`, the IC50 in test [1], in test [2], in test [3], in test [4] and in test [5] was above 10 µM each time.
For `C=C1C(=O)[C@]23[C@H](O)[C@H]1CC[C@H]2[C@]12CC[C@@H](O)[C@@](C)(COC(C)=O)[C@H]1[C@H](O)[C@]3(O)OC2`, the IC50 in test [1], in test [2], in test [3], in test [4] and in test [5] was above 10 µM in each case.
On to `COC[C@@H]1C(=O)[C@]23C[C@H]1CC[C@H]2[C@@]12CO[C@@]3(O)[C@@H](O)[C@@H]1C(C)(C)CC[C@@H]2OC(C)=O` (single isomer, unassigned), for which the IC50 in test [1], in test [2], in test [3], in test [4] and in test [5] was above 10 µM in each case.
As to `C=C1C(=O)[C@]23C[C@H]1C[C@H](O)[C@H]2[C@@]12CO[C@@]3(O)C[C@@H]1C(C)(C)CC[C@@H]2O` [RABDOCOETSIN C], the half-maximal inhibitory concentration (IC50) came out at 4.24 µM in test [1]; 9.04 µM in test [2]; 9.62 µM in test [3]; 5.29 µM in test [4]; 1.8 µM in test [5].
The corresponding values for `COC[C@H]1C(=O)[C@]23C[C@@H]1CC[C@H]2[C@@]12CO[C@]3(O)[C@@H](O)[C@@H]1C(C)(C)CC[C@@H]2O` are 17.2 µM, 14.6 µM, 14.3 µM, 13.8 µM and 7.83 µM.
In the case of `CC(=O)O[C@H]1C(=O)[C@@]2(C)[C@H]([C@H](OC(=O)c3ccccc3)[C@]3(O)C[C@H](OC(=O)[C@H](O)[C@@H](NC(=O)c4ccccc4)c4ccccc4)C(C)=C1C3(C)C)[C@]1(OC(C)=O)CO[C@@H]1C[C@@H]2O` [PACLITAXEL], the IC50 in test [1], in test [2], in test [3], in test [4] and in test [5] was below 0.008 µM in each case.
Turning to `C=C1C(=O)[C@]23C[C@H]1CC[C@H]2[C@]12CC[C@@H](O)[C@@](C)(COC(C)=O)[C@H]1[C@H](O)[C@]3(O)OC2`, the IC50 stood at 12.5 µM in test [1]; 14.2 µM in test [2]; 16 µM in test [3]; 14.7 µM in test [4]; 3.74 µM in test [5].
The corresponding values for `C=C1C(=O)[C@]23C[C@H]1C[C@@H](OC(C)=O)[C@H]2[C@@]12CO[C@@]3(O)[C@@H](O)[C@@H]1C(C)(C)CC[C@@H]2O` are 5.36 µM, 12.7 µM, 12.1 µM, 14.1 µM and 2.34 µM.
